Source: the supplement of paper PMC10307832

These cell lines were tested with c1ccc2c(CCNc3ccc(Nc4ccncc4)cc3)c[nH]c2c1 [Serdemetan] + Cc1nc(NC(=O)N2CCC[C@H]2C(N)=O)sc1-c1ccnc(C(C)(C)C(F)(F)F)c1 [Alpelisib] (partner 2 µM) (assay: relative viability (nuclei count vs DMSO), 5 days (fraction); higher = more cells survive). Settings: first compound 0.04 µM.
Outline: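 One day after seeding in 1536-well plates, lung cancer cell lines were dosed by pin tool. Dosing was either single-drug or a fixed anchor-drug dose plus five library-drug doses (not always all listed) in √10 steps. After 5 days, nuclei were stained in one fix-and-stain step and counted on 4× images, and relative viability is the nuclei count of treated wells over that of vehicle wells, given as the median of duplicate plates.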
In the case of NCI-H1666, the relative viability is reported as 1.22.
NCI-H596 showed a relative viability of 0.477.
LK-2 gave a relative viability of 1.1.
In the case of NCI-H2087, the relative viability is reported as 1.1.
In the case of SK-MES-1, the relative viability is reported as 0.836.
With H3255 the relative viability was 0.657.
COR-L23 showed a relative viability of 0.788.
Cell Line COR-L 105 has a relative viability of 0.906.
Cell Line IA-LM has a relative viability of 0.726.
In the case of LOU-NH91, the relative viability is reported as 0.741.
NCI-H2170 gave a relative viability of 0.776.
NCI-H2405 was tested, and the relative viability was 0.881.
Work on HCC-44 yielded a relative viability of 0.714.
Work on A549 yielded a relative viability of 0.753.
NCI-H2009 gave a relative viability of 1.18.
For NCI-H661, the relative viability was 0.759.
Cell Line SK-LU-1 has a relative viability of 1.14.
Work on NCI-H1299 yielded a relative viability of 0.992.
Cell Line NCI-H2228 has a relative viability of 0.762.
NCI-H1792 showed a relative viability of 0.697.
Work on NCI-H2023 yielded a relative viability of 0.613.
In the case of NCI-H1563, the relative viability is reported as 0.89.

Same assay, conditions: first compound 0.1265 µM
In the case of NCI-H727, the relative viability is reported as 0.522.
EBC-1 gave a relative viability of 0.865.
NCI-H1703 gave a relative viability of 0.345.
NCI-H1993 was tested, and the relative viability was 0.802.
Cell Line SW 1573 has a relative viability of 0.791.
Cell Line NCI-H838 has a relative viability of 0.953.
With LCLC-103H the relative viability was 0.957.
For NCI-H520, the relative viability was 0.807.
NCI-H2126 showed a relative viability of 0.753.
EMC-BAC-2 was tested, and the relative viability was 0.712.
NCI-H2085 was tested, and the relative viability was 0.911.
Calu-6 showed a relative viability of 1.01.
Work on HCC-366 yielded a relative viability of 0.434.
For NCI-H1666, the relative viability was 1.
NCI-H596 was tested, and the relative viability was 0.498.
For LK-2, the relative viability was 1.28.
With NCI-H2087 the relative viability was 0.986.
SK-MES-1 gave a relative viability of 0.792.
Work on H3255 yielded a relative viability of 0.693.
Work on COR-L23 yielded a relative viability of 0.767.
Cell Line COR-L 105 has a relative viability of 1.08.
IA-LM gave a relative viability of 0.834.
Work on LOU-NH91 yielded a relative viability of 0.677.
In the case of NCI-H2170, the relative viability is reported as 0.854.
With NCI-H2405 the relative viability was 0.918.
For HCC-44, the relative viability was 0.772.
For A549, the relative viability was 0.722.
Cell Line NCI-H2009 has a relative viability of 1.11.
NCI-H661 gave a relative viability of 0.429.
In the case of SK-LU-1, the relative viability is reported as 1.07.
NCI-H1299 was tested, and the relative viability was 0.996.
For NCI-H2228, the relative viability was 0.554.
NCI-H1792 was tested, and the relative viability was 0.686.
NCI-H2023 was tested, and the relative viability was 0.651.
NCI-H1563 showed a relative viability of 0.893.

Same assay, conditions: first compound 0.4 µM
Work on NCI-H727 yielded a relative viability of 0.593.
For EBC-1, the relative viability was 0.752.
With NCI-H1703 the relative viability was 0.306.
NCI-H1993 gave a relative viability of 0.621.
SW 1573 gave a relative viability of 0.722.
NCI-H838 showed a relative viability of 0.995.
Work on LCLC-103H yielded a relative viability of 0.923.
For NCI-H520, the relative viability was 1.09.
Cell Line NCI-H2126 has a relative viability of 0.741.
EMC-BAC-2 gave a relative viability of 0.727.
In the case of NCI-H2085, the relative viability is reported as 0.801.
In the case of Calu-6, the relative viability is reported as 0.929.
With HCC-366 the relative viability was 0.208.
With NCI-H1666 the relative viability was 0.891.
With NCI-H596 the relative viability was 0.481.
In the case of LK-2, the relative viability is reported as 1.25.
Work on NCI-H2087 yielded a relative viability of 1.09.
Cell Line SK-MES-1 has a relative viability of 0.74.
Cell Line H3255 has a relative viability of 0.585.
With COR-L23 the relative viability was 0.763.
In the case of COR-L 105, the relative viability is reported as 0.922.
With IA-LM the relative viability was 0.729.
Work on NCI-H2170 yielded a relative viability of 0.833.
Cell Line NCI-H2405 has a relative viability of 0.826.
Work on HCC-44 yielded a relative viability of 0.75.
Cell Line A549 has a relative viability of 0.727.
NCI-H2009 was tested, and the relative viability was 1.08.
Cell Line NCI-H661 has a relative viability of 0.676.
SK-LU-1 was tested, and the relative viability was 0.944.
Cell Line NCI-H1299 has a relative viability of 1.03.
With NCI-H2228 the relative viability was 0.46.
NCI-H1792 showed a relative viability of 0.567.
Work on NCI-H2023 yielded a relative viability of 0.521.
For NCI-H1563, the relative viability was 0.931.

Same assay, conditions: first compound 1.265 µM
For NCI-H727, the relative viability was 0.487.
EBC-1 gave a relative viability of 0.793.
Cell Line NCI-H1703 has a relative viability of 0.277.
In the case of SW 1573, the relative viability is reported as 0.463.
Cell Line NCI-H838 has a relative viability of 0.962.
LCLC-103H gave a relative viability of 0.844.
With NCI-H520 the relative viability was 0.726.
NCI-H2126 showed a relative viability of 0.575.
For EMC-BAC-2, the relative viability was 0.662.
NCI-H2085 was tested, and the relative viability was 0.573.
For Calu-6, the relative viability was 0.788.
Work on HCC-366 yielded a relative viability of 0.0495.
In the case of NCI-H1666, the relative viability is reported as 0.794.
For NCI-H596, the relative viability was 0.369.
Work on LK-2 yielded a relative viability of 1.06.
NCI-H2087 was tested, and the relative viability was 0.669.
Cell Line SK-MES-1 has a relative viability of 0.834.
Cell Line H3255 has a relative viability of 0.683.
COR-L23 was tested, and the relative viability was 0.821.
With COR-L 105 the relative viability was 1.04.
IA-LM showed a relative viability of 0.535.
For LOU-NH91, the relative viability was 0.761.
In the case of NCI-H2170, the relative viability is reported as 0.721.
For NCI-H2405, the relative viability was 0.772.
HCC-44 showed a relative viability of 0.532.
In the case of A549, the relative viability is reported as 0.569.
Work on NCI-H2009 yielded a relative viability of 1.12.
Cell Line NCI-H661 has a relative viability of 0.197.
Work on SK-LU-1 yielded a relative viability of 0.758.
Cell Line NCI-H1299 has a relative viability of 0.96.
In the case of NCI-H2228, the relative viability is reported as 0.307.
NCI-H1792 was tested, and the relative viability was 0.529.
Work on NCI-H2023 yielded a relative viability of 0.375.
NCI-H1563 was tested, and the relative viability was 0.815.

Same assay, conditions: first compound 4 µM
For NCI-H727, the relative viability was 0.418.
EBC-1 showed a relative viability of 0.623.
NCI-H1703 was tested, and the relative viability was 0.374.
For NCI-H1993, the relative viability was 0.67.
Work on SW 1573 yielded a relative viability of 0.385.
With NCI-H838 the relative viability was 1.13.
LCLC-103H showed a relative viability of 0.764.
In the case of NCI-H520, the relative viability is reported as 0.786.
NCI-H2126 gave a relative viability of 0.762.
Work on EMC-BAC-2 yielded a relative viability of 0.548.
NCI-H2085 gave a relative viability of 0.585.
With Calu-6 the relative viability was 0.674.
HCC-366 was tested, and the relative viability was 0.0462.
For NCI-H1666, the relative viability was 0.807.
With NCI-H596 the relative viability was 0.298.
LK-2 gave a relative viability of 0.652.
In the case of NCI-H2087, the relative viability is reported as 0.532.
With SK-MES-1 the relative viability was 0.526.
In the case of H3255, the relative viability is reported as 0.525.
With COR-L23 the relative viability was 0.703.
With COR-L 105 the relative viability was 0.865.
Work on IA-LM yielded a relative viability of 0.568.
With LOU-NH91 the relative viability was 0.679.
Work on NCI-H2170 yielded a relative viability of 0.811.
For NCI-H2405, the relative viability was 0.543.
HCC-44 was tested, and the relative viability was 0.636.
For A549, the relative viability was 0.252.
NCI-H2009 was tested, and the relative viability was 0.964.
NCI-H661 gave a relative viability of 0.428.
For SK-LU-1, the relative viability was 0.669.
NCI-H1299 was tested, and the relative viability was 0.968.
In the case of NCI-H2228, the relative viability is reported as 0.294.
For NCI-H1792, the relative viability was 0.257.
Cell Line NCI-H2023 has a relative viability of 0.266.
NCI-H1563 showed a relative viability of 0.763.
